Assay results published in patent publication US6534073B2, “Skin care cosmetic compositions containing carboxymethylates of branched alcohols and/or ethoxylates thereof” (Unilever Home & Personal Care USA division of Conopco, Inc., priority 2000, dated 2003).
Where two headings read alike, the source gives them in different places. Marks after values point to notes of the source that are not given here.

Experiments:
human sebocytes = assay: Inhibition of sebocyte lipogenesis (14C-acetate incorporation); type: cell-based; settings: for inhibition of lipogenesis (result in words): summary of Tables 2 and 3
Procedure: This example provided data on inhibition of sebocyte lipogenesis.
Secondary cultures of human sebocytes obtained from an adult […] were grown in 48-well tissue culture plates (Costar Corp.; Cambridge, Mass.) or 96-well tissue culture plates (Packard Co.; Meriden, Conn.) until confluent. Sebocyte growth medium consisted of Clonetics Keratinocyte Basal Medium (KBM) 5 supplemented with 14 μg/ml bovine pituitary extract, 0.4 μg/ml hydrocortisone, 5 μg/ml insulin, 10 ng/ml epidermal growth factor, 1.2×10^−10 M cholera toxin, 100 units/ml penicillin, and 100 μg/ml streptomycin. All cultures were incubated at 37° C. in the presence of 7.5% CO2. Medium was changed three times per week.
On the day of experimentation, the growth medium was removed and the sebocytes washed three times with sterile Dulbecco's Modified Eagle Medium (DMEM; phenol red free). Fresh DMEM was added to each sample (duplicates, triplicates, or quadruplicates depending on the experiment) with 5 μL of test agent solubilized in ethanol or sterile, distilled water either alone or in the presence of one or 10 μM of retinol. Controls consisted of addition of ethanol alone, retinol alone or phenol red, which has estrogen-like activity and was included as a positive control.
Each plate was returned to the incubator for 20 hours followed by the addition of ^14C-acetate buffer (5 mM final concentration, 56 mCi/mmol specific activity). Sebocytes were returned to the incubator for four hours after which each culture was rinsed three times with phosphate buffered saline to remove unbound label. Radioactive label remaining in the sebocytes was harvested and counted using a Beckman scintillation counter.

[1] = system: procollagen I production by neonatal human dermal fibroblasts; assay: Procollagen I production by fibroblasts (slot blot, densitometry); type: cell-based; settings: for Average OD Reading / Fold increase Over Control: Table 4; for Average OD Reading: procollagen I densitometer reading, control 0.783; for Fold increase Over Control / % Increase (+) or % decrease (−) over control: procollagen I; for % Increase (+) or % decrease (−) over control: positive control, concentration not given
Procedure: This example measured production of procollagen I by fibroblasts in response to treatment with various straight chain and branched alcohols alone.
Neonatal human dermal fibroblasts were purchased from Clonetics Corp., San Diego, Calif. All materials for cell culture were purchased from Life Technologies, N.Y. (and used in passages 5-10). Cells were seeded at a density of approximately 10,000/well in the inner 48 wells of a 96-well plate in a medium containing DMEM (Dulbecco's Modified Eagle's Medium), high-glucose supplemented with 2 mM L-glutamine, 10% fetal bovine serum, and antibiotic and antimycotic solutions. Cells were then grown to confluence for 2 days. At confluence, the medium was removed and cells were washed with serum-free DMEM, and each well dosed with 200 μl of a solution of a test compound in serum-free DMEM. Each dosing was replicated in a total of six wells. […] After 24 hours, the test compound solution or the control solution was removed and cells redosed with 100 μl of a solution of a test compound in serum-free DMEM.
Nitrocellulose membrane and 3 sheets of filter paper were soaked in TRIS buffered saline (TBS, pH 7.3.). BioRad slot blot apparatus (BioRad Labs, CA) was set up with 3 sheets filter paper on bottom, membrane on top, and tightened. […] TBS was added per well. Vacuum was used to suck TBS through membrane. The test compound solution or control was vortexed, then 100 μl was loaded per well and gravity filtered. Procollagen from the test solution was bound to the membrane at this point in the procedure. Membrane was removed from the apparatus, excess cut off, and bottom right corner notched for orientation. The membrane was placed in blocking solution (5% milk powder in Dulbecco's phosphate buffered saline) overnight at 4° C., with shaking. The membrane was then incubated for 1.5 hrs at room temperature with 1.5 mL Rat Anti-Human Procollagen Amino-Terminal Ab (Chemicon MAB1912) in TBS with 0.1% BSA (Bovine Serum Albumin) (ratio of antibody to buffer/BSA was 1:100) in a sealed bag with shaking. The membrane was then removed; washed 3 times for 5 minutes in TBS/0.1% Tween. The membrane was then incubated for 1 hour at room temperature in 2 mL of Biotinylated Anti-Rat Peroxidase-Conjugated Ab (Vector Labs) in TBS with 0.1% BSA (ratio of antibody to buffer/BSA was 1:1000) in a sealed bag with shaking. The membrane was then stained using the following solution:
12.5 mg 3-amino 9-ethyl carbazole (Sigma)
3.125 (approximately) mL DMF (N,N-dimethylformamide, from Sigma)
The membrane was stained until color developed and the reaction stopped with 2 washes for 10 minutes in tap water. The blot was scanned on a Bio-Rad GS700 Image Analysis densitometer. Percent change from control was calculated from densitometer readings as follows: [(Reading for test compound-Reading for control)/Reading for control]*100. Control has a reading of 100%. Statistical significance (p value) was calculated using student's t-test.
TGF-B is a positive control, ensuring the integrity of the assay: transforming growth factor beta is known to increase procollagen I in fibroblasts.
This example measured production of procollagen I by fibroblasts in response to treatment with various test compounds.
The experiment was conducted as described in Example 1 above. Fold increase was calculated as a ratio of densitometer reading for cells treated with a test compound over control.

[2] = Homo sapiens, Table 2, 14C-acetate label in sebocytes, read-out: % of Control
[3] = Homo sapiens, Table 3, 14C-acetate label in sebocytes, read-out: % of Control
[4] = Table 2, 14C-acetate label in sebocytes, 1 μM
[5] = Table 2, 14C-acetate label in sebocytes, 10 μM
[6] = Table 2, 14C-acetate label in sebocytes, 100 μM

`O=S1(=O)OC(c2ccc(O)cc2)(c2ccc(O)cc2)c2ccccc21` [Phenol Red, reference compound] showed an activity at 28 µM (human sebocytes; [2]) of 56.5%, an activity at 280 µM (human sebocytes; [2]) of 43.3% and an activity at 28 µM (human sebocytes; [3]) of 92%. The activity at 280 µM (human sebocytes; [3]) was 61.7%.

Compound `CC1=C(/C=C/C(C)=C/C=C/C(C)=C/CO)C(C)(C)CCC1` [Retinol, reference compound] has an activity at 1 µM (human sebocytes; Homo sapiens, Table 3, 14C-acetate label in sebocytes, 1 μM, read-out: % of Control) of 91.8% and an activity at 10 µM (human sebocytes; Homo sapiens, Table 3, 14C-acetate label in sebocytes, 10 μM, read-out: % of Control) of 106%.

For “Iso-tridecyl carboxymethylate (sodium salt)”, the “% of Control” value (human sebocytes; [4]) was 81.5* %, the “% of Control” value (human sebocytes; [5]) was 49.6* % and the “% of Control” value (human sebocytes; [6]) was 1.2* %. For the same compound, the “% of Control” value (human sebocytes; Table 3, 14C-acetate label in sebocytes, 1 μM) was 75.8* %, the “% of Control” value (human sebocytes; Table 3, 14C-acetate label in sebocytes, 10 μM) was 66.0* % and the “inhibition of lipogenesis (result in words)” value (human sebocytes) was “improved inhibition of lipogenesis”.

With “TGF-B: transforming growth factor beta, positive control known to increase procollagen I in fibroblasts [reference compound]” the “Average OD Reading” value ([1]; 0.001%) was 1.348, the “Fold increase Over Control” value ([1]; 0.001%) was 1.72* Fold and the “% Increase (+) or % decrease (−) over control” value ([1]; Table 1 Experiment 1) was “+50* %”. For the same compound, the “% Increase (+) or % decrease (−) over control” value ([1]; Table 1 Experiment 2) was “+140* %”.

iso-tridecyl carboxymethylate was tested, and the “Average OD Reading” value ([1]; 0.0001%) was 0.777, the “Average OD Reading” value ([1]; 0.001%) was 1.295 and the “Fold increase Over Control” value ([1]; 0.0001%) was 0.99 Fold. The “Fold increase Over Control” value ([1]; 0.001%) was 1.65* Fold, the “collagen synthesis by fibroblasts (result in words)” value ([1]; summary of Tables 1 and 4) was “increased collagen production” and the “% of Control” value (human sebocytes; [4]) was 80.0* %. For the same compound, the “% of Control” value (human sebocytes; [5]) was 58.2* %, the “% of Control” value (human sebocytes; [6]) was 1.4* % and the “inhibition of lipogenesis (result in words)” value (human sebocytes) was “enhanced inhibition of lipogenesis at all tested concentrations”.
